Legend:
[1] = tested on: mitotic marker phospho-histone H3 at serine 10 (pH3 (Ser10)) in transformed BJ cells; experiment: Immunoblot analysis of mitotic marker pH3 (Ser10), derivatives of Compound 1; format: cell-based; conditions: Homo sapiens, band intensities pH3(Ser10)/β-actin vs DMSO control, 24 h
Protocol: (§1) FIG. 4 compares the ability of Compound 1 (a131), and various derivatives thereof (referred to using their code numbers for brevity; the designated chemical compound for each code number is provided in the chemical examples section below), to inhibit autophagy and/or mitosis. BJ transformed cells were treated with 5 μM of various Compounds as shown, for 24 h. Cells were harvested and total lysates were analysed by detecting the mitotic marker phospho-histone H3 at serine 10 (pH3 (Ser10)) and the autophagosome marker LC3. Antibodies raised against β-actin were used as an internal loading control.
(§2) The ability of Compound 1 to inhibit lysosome function was examined using immunoblotting. HeLa cervical cancer cells were cultured in Dulbecco's modified Eagle's medium (DMEM) supplemented with 10% Fetal Bovine Serum (FBS, Thermo Scientific). The HeLa cells were treated with different concentrations of Compound 1 (0.625, 1.25, 2.5, 5 and 10 μM, dimethyl sulfoxide (DMSO, Kanto Kagaku)), chloroquine (CQ) (1.25, 2.5, 10, 50 and 100 μM, DMSO) or DMSO for 6 h. Then, the treated cells were harvested and lysed in 1% triton lysis buffer [25 mM Tris HCl (pH8.0), 150 mM NaCl, 1% triton-X100, 1 mM dithiothreitol (DTT), protease inhibitor mix (Complete Mini, Roche) and phosphatase inhibitor (PhosphoStop, Roche)]. The proteins in total lysates were boiled with sample buffer (60 mM Tris-HCl (pH 6.8), 25% glycerol, 2% SDS, 14.4 mM 2-mercaptoethanol, 0.1% bromophenol blue) and resolved by 14% tris-glycine sodium dodecyl sulfate polyacrylamide gel electrophoresis (SDS-PAGE) and subjected to immunoblot analysis.
(§3) Defects in lysosome function and inhibition of autophagy can be measured by accumulation of LC3-phosphatidylethanolamine conjugated non-soluble form (LC3-II), which are converted from soluble LC3-I. Thus, antibodies raised against LC3 (Cell Signaling, Cat#4108) were used to determine lysosomal function and integrity. Antibodies raised against phosphorylated histone H3 at serine 10 residue (pH3) (Cell signaling, Cat#3377) were used as the marker for mitotic dysfunction and arrest. Antibodies raised against β-actin (Millipore, Cat#MAB1501) were used as an internal loading control. The inhibitory ability of Compound 1 was also quantitatively compared to CQ.
(§4) Derivatives of Compound 1 were tested to see if they had similar dual activity, or presented only one of the activities of Compound 1. The protocol for immunoblot analysis described in Biology Example 1 was applied to the additional indicated compounds.
(§5) Activities of compounds were determined by two independent experiments. First, Compounds were classified according to the intensity of increase in each of the mitotic marker phospho-histone H3 at serine 10 (pH3 (Ser 10)) and the autophagosome marker LC3, respectively, at 1.25 μM, when compared with 1.25 μM Compound 1 (a131).
(§6) Compounds classified “++” on either “mitosis” or “inhibits lysosome” show similar increase in each of the mitotic marker phospho-histone H3 at serine 10 (pH3 (Ser10)) and the autophagosome marker LC3, respectively, at 2.5 μM, when compared with 1.25 μM Compound 1 (a131); and compounds classified “+” on either “mitosis” or “inhibits lysosome” show similar increase in each of the mitotic marker phospho-histone H3 at serine 10 (pH3 (Ser10)) and the autophagosome marker LC3, respectively, at a concentration range of 5-10 μM, when compared with 1.25 μM Compound 1 (a131).
Compounds classified “+/−” on either “mitosis” or “inhibits lysosome” show less increase in each of the mitotic marker phospho-histone H3 at serine 10 (pH3 (Ser10)) and the autophagosome marker LC3, respectively, at a concentration range of 5-10 μM, when compared with 1.25 μM Compound 1 (a131).
Next, the ability of Compound 1 and its derivatives to induce mitotic arrest in transformed BJ cells was quantified as the fold induction of band intensities [pH3(Ser10)/β-actin] in comparison with DMSO control. […]

[2] = tested on: non-transformed normal BJ cells; experiment: BrdU incorporation and FACS analysis (cell cycle arrest); format: cell-based, human; conditions: 24 h; 2.5 and 5 μM (FIG. 9A, 9C)
Protocol: A: is output from a FACS analysis of isogenic-non-transformed, without (panels a-c) (WT) or with (panels d-f) shRNA-mediated knockdown of p53 (p53KD), and oncogene-transformed BJ cells (panels g-i), each treated with 0, 5 or 2.5 μM Compound 1 (a131) for 24 h. Cells were doubly stained with PI (horizontal axis) and BrdU (vertical axis). The BrdU-positive population in panels a-c are indicated as arrows. B: is a diagrammatic representation of an immunoblot analysis showing isogenic non-transformed (normal) and oncogene-transformed BJ cells (transformed) treated with Compound 1 (a131) at 0, 2.5 or 5 μM for 24 h or 48 h. Cells were harvested and total lysates were analysed by detecting p53 and p21. Antibodies raised against β-actin were used as an internal loading control. C and D are histograms showing the percentage of bromodeoxyuracil (BrdU)-positive non-transformed (normal) BJ cells. C: Cells were treated with Group 1 Compound 1 (a131) at 2.5 and 5 μM, Compound 23 (b36) at 2.5 and 5 μM, and Compound 21 (b35) at 5 μM, and Group 2 Compound 25 (a166) at 2.5 and 5 μM, for 24 h. Cells were doubly stained with propidium iodide (PI) and BrdU, and subjected to FACS analysis. The BrdU-positive population are plotted as bars. D: Cells were treated with Group 1 Compound 1 (a131), Compound 16 (b5), and Compound 17 (b9); Group 2 Compound 13 (b12), Compound 12 (b16) and Compound 25 (a166), and Group 3 Compound 3 (a159) at 5 μM for 48 h. The percentage of cells with BrdU positive population, in comparison with DMSO control vehicle, is shown with mean values±S.D. (n=3).
Isogenic non-transformed and oncogene-transformed BJ cells (cultured as in Biology Example 3) were treated with Compound 1 at final concentrations of 2.5 and 5 μM for 24 h. The treated cells were then treated with 30 μM final concentration of 5-bromo-2′-deoxyuridine (BrdU, SIGMA) for 1 h to detect DNA synthesis as a marker for cell proliferation. Subsequently, the cells were fixed in EtOH at 4° C. overnight and permeabilized with 2N HCl/0.5% Triton X-100 for 30 min. The cells were then treated with 0.1M sodium tetraborate for 2 min and stained with anti-BrdU antibody (Invitrogen, Cat#B35129) for 60 min, followed by a 30 min treatment with 20 μg/mL of propidium iodide (PI) and 10 μg/mL RNaseA.
Furthermore, the abilities of additional five (5) Compounds to arrest cells at the stage of G1/S phase of the cell cycle were evaluated. […] The abilities of these Compounds to arrest cells at the stage of G1/S phase of the cell cycle were then measured by using BrdU incorporation assay and FACS analysis. The percentage of cells with BrdU positive population in comparison with DMSO control vehicle was determined and plotted with mean values±S.D. (n=3).

[3] = tested on: autophagosome marker LC3 (LC3 II/LC3 I) in transformed BJ cells; experiment: Immunoblot analysis of autophagosome marker LC3 (lysosome function), derivatives of Compound 1; format: cell-based; conditions: Homo sapiens, band intensities LC3 II/LC3 I vs DMSO control, 24 h
Protocol: as §1, §2, §3, §4, §5, §6
Compounds classified “+/−” on either “mitosis” or “inhibits lysosome” show less increase in each of the mitotic marker phospho-histone H3 at serine 10 (pH3 (Ser10)) and the autophagosome marker LC3, respectively, at a concentration range of 5-10 μM, when compared with 1.25 μM Compound 1 (a131). […]

[4] = tested on: pH3 (Ser10) and LC3 in BJ transformed cells; experiment: Immunoblot classification of compounds by pH3 and LC3 (FIG. 4); format: cell-based, human; conditions: 5 μM, 24 h
Protocol: as §1, §4

| Compound | fold induction at 5 µM [1] | BrdU-positive cell population [2] | fold induction at 5 µM [3] | Inhibition of lysosome function and/or mitosis (FIG. 4) [4] |
| --- | --- | --- | --- | --- |
| N#C/C(=C\c1cccc2cnccc12)c1cn(C(=O)C2CCNCC2)c2ccccc12 [Compound 21, (Z)-3-(isoquinolin-5-yl)-2-(1-(piperidine-4-carbonyl)-1H-indol-3-yl)acrylonitrile] | 10.1 | substantially decreased the population of BrdU-positive cells | 7.3 | exhibit the dual properties of inhibiting both lysosome function and mitosis |
| N#C/C(=C\c1cccc2cnccc12)c1cn(C(=O)C2CCN(C(=O)CCCC[C@@H]3SC[C@@H]4NC(=O)N[C@@H]43)CC2)c2ccccc12 [Compound 23, (Z)-3-(isoquinolin-5-yl)-2-(1-(1-(5-((3aS,4S,6aR)-2-oxohexahydro-1H-thieno[3,4-d]imidazol-4-yl)pentanoyl)piperidine-4-carbonyl)-1H-indol-3-yl)acrylonitrile] | 18.6 | substantially decreased the population of BrdU-positive cells | 5.7 | exhibit the dual properties of inhibiting both lysosome function and mitosis |
| N#C/C(=C\c1cccc2cnccc12)c1cn(C(=O)CCNC(=O)CCCC[C@@H]2SC[C@@H]3NC(=O)N[C@@H]32)c2ccccc12 [Compound 24, N-(3-(3-((Z)-1-cyano-2-(isoquinolin-5-yl)vinyl)-1H-indol-1-yl)-3-oxopropyl)-5-((3aS,4S,6aR)-2-oxohexahydro-1H-thieno[3,4-d]imidazol-4-yl)pentanamide] | 3.2 |  | 3.3 | exhibit the dual properties of inhibiting both lysosome function and mitosis |
| C(=C\c1c[nH]c2ccccc12)/c1cncc2cnccc12 [Compound 26, 4-((E)-2-(1H-indol-3-yl)vinyl)-2,7-naphthyridine] | 1.2 |  | 2.7 | inhibit lysosome function only |
| C(=C\c1c[nH]c2ncccc12)/c1cccc2cnccc12 [Compound 27, 5-((E)-2-(1H-pyrrolo[2,3-b]pyridin-3-yl)vinyl)isoquinoline] | 1.2 |  | 2 | inhibit lysosome function only |
| COCCOCC(=O)n1cc(/C(C#N)=C/c2cccc3cnccc23)c2ccccc21 [Compound 30, (Z)-2-(1-(2-(2-methoxyethoxy)acetyl)-1H-indol-3-yl)-3-(isoquinolin-5-yl)acrylonitrile] | 12.8 |  | 4.1 | exhibit the dual properties of inhibiting both lysosome function and mitosis |
| N#C/C(=C\c1cccc2cnccc12)c1c[nH]c2cc(CN3CCCC3)ccc12 [Compound 31, (Z)-3-(isoquinolin-5-yl)-2-(6-((pyrrolidin-1-yl)methyl)-1H-indol-3-yl)acrylonitrile] | 1.1 |  | 5.7 | inhibit lysosome function only |
| N#C/C(=C\c1cccc2cnccc12)c1c[nH]c2ccc(CN3CCCC3)cc12 [Compound 32, (Z)-3-(isoquinolin-5-yl)-2-(5-((pyrrolidin-1-yl)methyl)-1H-indol-3-yl)acrylonitrile] | 1 |  | 3.3 | inhibit lysosome function only |
| N#C/C(=C\c1cccc2cnccc12)c1c[nH]c2c(CN3CCCC3)cccc12 [Compound 33, (Z)-3-(isoquinolin-5-yl)-2-(7-((pyrrolidin-1-yl)methyl)-1H-indol-3-yl)acrylonitrile] | 0.8 |  | 3.7 | inhibit lysosome function only |
| N#C/C(=C\c1cccc2cnccc12)c1n[nH]c2ccccc12 [Compound 34, (Z)-2-(1H-indazol-3-yl)-3-(isoquinolin-5-yl)acrylonitrile] | 1.4 |  | 2 | inhibit lysosome function only |
